Read-outs that look alike come from different tables or passages of the source. Marks after values point to notes of the source that are not given here.
How the values were obtained:
[1] = Metabolic stability in mouse liver microsomes; format: in vitro ADME; conditions: for half-life at 0.5 μM: mouse, liver microsomes
Description: Test compounds (0.5 μM) were incubated at 37° C. for up to 45 minutes in 50 mM of potassium phosphate buffer (pH 7.4) containing mouse liver microsomal protein (0.5 mg/mL) and an NADPH generating system (0.34 mg/mL β-nicotinamide adenine dinucleotide phosphate (NADP), 1.56 mg/mL glucose-6-phosphate, 1.2 units/mL glucose-6-phosphate dehydrogenase). At 0, 5, 15, 30, and 45 minute intervals, an aliquot was taken and quenched with acetonitrile (ACN) containing internal standard. No-cofactor controls at 45 minutes were prepared. Following completion of the experiment, the samples were analyzed by LC-MS/MS.
The half-life (t1/2) was calculated using the following equation: t1/2=0.693/k Where, k is the elimination rate constant of test compounds obtained by fitting the data to the equation: C=initial×exp(−k×t) Intrinsic clearance (Clint) is calculated as liver clearance from the half-life using the following equation: […]
0.5 mg protein/mL incubation
Ethoxycoumarin was used as a control.

[2] = In vitro stability study in mouse plasma; format: in vitro ADME; conditions: for Percent Remaining: 37° C.
Description: The assay was conducted by incubating 1 μM of test compounds with Mouse Plasma (Strain […]) for a series of incubation times (0, 15, 30, 60, 120 minutes) at various temperatures (wet ice, room temperature, or 37° C.) with 5% CO2 and shaking (130 rpm). At each time point, the samples were quenched with 200 μL of stop solution containing an internal standard and kept on ice. The samples were analysed by LC-MS/MS.

[3] = test system: C57BL/6 mice, kidney ischemia-reperfusion injury; assay: Kidney model of ischemia-reperfusion injury (IRI); format: in vivo
Description: As an initial in vivo study, the effects of Fer-1 and SRS16-86 on serum creatinine, a marker of kidney damage, were evaluated in an ischemia reperfusion injury (IRI) model of kidney failure (FIG. 21).
Organs were dissected as indicated in each experiment and infused with 4% (vol/vol) neutral-buffered formaldehyde, fixated for 48 h, dehydrated in a graded ethanol series and xylene, and finally embedded in paraffin. Stained sections were analyzed using an Axio Imager microscope (Zeiss). Kidney damage was quantified by two experienced pathologists in a double-blind manner on a scale ranging from 0 (unaffected tissue) to 10 (severe organ damage). The following parameters were chosen as indicative of morphological damage to the kidney after ischemia-reperfusion injury (IRI): brush border loss, red blood cell extravasation, tubule dilatation, tubule degeneration, tubule necrosis, and tubular cast formation. These parameters were evaluated on a scale of 0-10, which ranged from not present (0), mild (1-4), moderate (5 or 6), severe (7 or 8), to very severe (9 or 10). Each parameter was determined on at least four different animals.
Induction of kidney IRI was performed via a midline abdominal incision and a bilateral renal pedicle clamping for either 40 min (severe IRI, or “lethal-to-WT” IRI) or 50 min (ultra-severe IRI) using microaneurysm clamps (Aesculab). Throughout the surgical procedure, the body temperature was maintained between 36° C. and 37° C. by continuous monitoring using a temperature-controlled self-regulated heating system (Fine Science Tools). After removal of the clamps, reperfusion of the kidneys was confirmed visually. The abdomen was closed in two layers using standard 6-0 sutures. Sham-operated mice underwent the identical surgical procedures, except that microaneurysm clamps were not applied. To maintain fluid balance, all of the mice were supplemented with 1 mL of prewarmed PBS administered intraperitoneally directly after surgery. All mice were killed 48 h after reperfusion for each experiment. […] All ischemia-reperfusion experiments were performed in a double-blinded manner.

[4] = test system: HT1080 cells; assay: FACS (7AAD / annexin V) of erastin-treated HT1080 cells; format: cell-based, human; conditions: 50 μM erastin, 1 μM compound
Description: (§1) For induction of necroptosis, HT-29 cells were stimulated for 24 h at 37° C. with 100 ng/mL TNFα plus 1 μM Smac mimetics plus 25 μM zVAD as indicated (vehicle-treated cells served as control). For induction of ferroptosis, NIH and HT-1080 cells were each stimulated for 24 h at 37° C. with 50 μM erastin as indicated (vehicle-treated cells served as a control). For induction of apoptosis, Jurkat cells were stimulated for 4 h with 100 ng/mL monoclonal anti-Fas (clone 7C11; Immunotech). Anti-Fas-induced apoptosis of Jurkat cells was inhibited by further addition of 25 μM zVAD (vehicle-treated cells served as control).
(§2) Phosphatidylserine exposure to the outer cell membrane of apoptotic cells or at the inner plasma membrane of necrotic cells and incorporation of 7-AAD into necrotic cells were quantified by fluorescence-activated cell sorting (FACS) analysis. The ApoAlert annexin V-FITC antibody and the 7-AAD antibody were purchased from BD Biosciences.

[5] = test system: NIH 3T3 cells; assay: FACS (7AAD / annexin V) of erastin-treated NIH 3T3 cells; format: cell-based, murine; conditions: 50 μM erastin, 1 μM compound
Description: as §1, §2

[6] = test system: freshly isolated murine renal tubules; assay: Synchronized necrosis of freshly isolated renal tubules (fatty-acid depletion / erastin); format: cell-based, mouse; conditions: in the presence of fatty acids
Description: Six to 12 mice were used for each isolated tubule preparation, depending on the amount of material needed for particular experiments. For preparation of isolated tubules, mice were anesthetized with ketamine (100 mg/kg i.p.) and xylazine (10 mg/kg i.p.), and the kidneys were immediately removed. Type I collagenase was from Worthington Biochemical. Percoll was purchased from Amersham Biosciences. All other reagents and chemicals, including delipidated BSA, were of the highest grade available from Sigma-Aldrich. […] The cortices were then dissected and minced on an ice-cold tile and then resuspended in additional solution A for 8-10 min of digestion at 37° C., followed by enrichment of proximal tubules using centrifugation on self-forming Percoll gradients. For Nec-1 studies in renal tubules, renal cortices were dissected in ice-cold dissection solution (DS) [HBSS with 10 mmol/L glucose, 5 mmol/L glycine, 1 mmol/L alanine, 15 mmol/L Hepes (pH 7.4); osmolality, 325 mOsmol/L] and sliced into 1-mm pieces. The fragments were transferred to collagenase solution (DS with 0.1% (wt/vol) type 2 collagenase and 96 μg/mL soybean trypsin inhibitor) and digested for 30 min at 37° C. and 61×g. After digestion, the supernatant was sieved through two nylon sieves: first 250-μm pore size and then 100-μm pore size. […]

CC(C)(C)OC(=O)c1ccc(NC23CC4CC(CC(C4)C2)C3)c(/N=C\c2cncnc2)c1 [SRS16-86, tert-butyl 4-(adamantylamino)-3-(pyrimidin-5-ylmethyleneamino)benzoate]
Elimination rate constant (k) ([1]; Mouse, Compound Conc = 0.5 μM): <0.0048 | Intrinsic Clearance (CLint) (mL/min/g liver) ([1]; Mouse, Compound Conc = 0.5 μM): <0.5* mL/min/g liver | half-life at 0.5 μM ([1]; pH 7.4, Mouse, Compound Conc = 0.5 μM, read-out: Half life (t½)): > 1.5 h | half-life at 0.5 μM ([1]; pH 7.4, stated in the text of Example 15, read-out: T1/2 in mouse liver microsomes): > 2 h | Percent Remaining ([2]; 0 minutes): 100.0% | Percent Remaining ([2]; 15 minutes): 82.2% | Percent Remaining ([2]; 30 minutes): 86.5% | Percent Remaining ([2]; 60 minutes): 83.9% | Percent Remaining ([2]; 120 minutes): 63.9% | half-life at 1 μM ([2]; C57BL/4, mouse, plasma, read-out: T1/2 in mouse plasma): > 2 h | serum creatinine in IRI model of kidney failure ([3]; 2 mg/kg IP 30 minutes prior to induction of IRI): effective | functional acute renal failure and structural organ damage after severe IRI ([3]; 40 min ischemia, 48 h after reperfusion, 2 mg/kg i.p.): protected from functional acute renal failure | serum urea and serum creatinine in ultrasevere IRI, added to Nec-1+SfA ([3]; 50 min ischemia, Nec-1+SfA-treated mice, 2 mg/kg i.p.): reduced plasma levels of serum urea and serum creatinine | ferroptosis-inhibiting ability (FACS) [4]: active compound | ferroptosis-inhibiting ability (FACS) [5]: active compound | tubular necrosis [6]: prevented
